IC50 data for 15 compounds are collected here from patent US20160257697A1, “THIOPHENE-SUBSTITUTED TETRACYCLIC COMPOUNDS AND METHODS OFUSE THEREOF FOR THE TREATMENT OF VIRAL DISEASES” (priority 2013, published 2016).

For orientation: IC50 means the concentration at which inhibition is half-maximal.

Read-outs that look alike come from different tables or passages of the source.

Test in all cases: microbe, parasite or virus in culture
Assay type in all cases: cell-based, Hepatitis C virus (HCV)

In one assay the test system is HCV replicon 1AY93H. The note with it: Replicon Assay A. The essentials: (§1)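 Three-day treatment of replicon cells (2000/well, 5% FBS, 0.5% DMSO), followed by TaqMan RT-PCR of replicon RNA with cyclophilin as internal control.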
A general note: Replicon systems follow genome replication, usually without infectious particles.

Another assay concerns HCV replicon 1A. The note with it: Replicon Assay A. The essentials:
as §1

The subject of another assay is HCV replicon 2B. As to conditions: Replicon Assay A. The essentials: as §1
The subject of another assay is HCV replicon 1B. As to conditions: Replicon Assay B.
The subject of the next assay is HCV replicon 1AQ30D. The note with it: Replicon Assay B.
Setting [1] is: read-out: 1A Y93H IC50, replicon 1AY93H.
[2] abbreviates: read-out: 1A Q30D IC50, replicon 1AQ30D.
The mark [3] stands for this setting: Hepatitis C virus, read-out: 1A Y93H IC50 (nM), replicon 1AY93H.
Setting [4] is: Hepatitis C virus, read-out: 2B IC50 (nM), replicon 2B.
The mark [5] stands for this setting: Hepatitis C virus, read-out: 1A Q30D IC50 (nM), replicon 1AQ30D.
[6] abbreviates: Hepatitis C virus, read-out: 1A Y93H IC50, HCV replicon 1A Y93H.
Setting [7] is: Hepatitis C virus, HCV replicon 1A.
The mark [8] stands for this setting: Hepatitis C virus, read-out: 2B IC50, HCV replicon 2B.
Where [9] appears, read: Hepatitis C virus, HCV replicon 1B.
[10] abbreviates: Hepatitis C virus, read-out: 1A Q30D IC50, HCV replicon 1A Q30D.

Consider `COC(=O)NC(C(=O)N1CCC[C@H]1c1ncc(-c2ccc3c(c2)cc2n3C(c3ccc(C4CC4)s3)Oc3cc(-c4cnc([C@@H]5CCCN5C(=O)[C@@H](NC(=O)OC)C(C)C)[nH]4)cc(F)c3-2)[nH]1)C1CCOC(C)(C)C1` (stereo partly drawn) [Compound 219], for which the IC50 was determined as 0.003 nM in the assay on HCV replicon 1AY93H (setting [1]); 2.2 pM in the assay on HCV replicon 1A (replicon 1A); 0.005 nM with HCV replicon 2B (read-out: 2B IC50, replicon 2B); 3.2 pM with HCV replicon 1B (replicon 1B); 0.034 nM with HCV replicon 1AQ30D (setting [2]).
Turning to `COC(=O)N[C@H](C(=O)N1CCC[C@@H]1c1ncc(-c2cc(F)c3c(c2)OC(c2ccc(C(C)C)s2)n2c-3cc3cc(-c4c[nH]c([C@@H]5CCCN5C(=O)[C@H](NC(=O)OC)C5C[C@@H](C)O[C@@H](C)C5)n4)ccc32)[nH]1)C(C)C` (stereo partly drawn) [Compound 234], the IC50 in the assay with HCV replicon 1AY93H (setting [3]) was found to be 0.004 nM; in the assay on HCV replicon 1A (replicon 1A), 3.3 pM; in the assay on HCV replicon 2B (setting [4]), 0.02 nM; with HCV replicon 1B (Hepatitis C virus, replicon 1B) it was 2.8 pM; in the assay on HCV replicon 1AQ30D (setting [5]), 0.05 nM.
In the case of `COC(=O)N[C@H](C(=O)N1CCC[C@@H]1c1ncc(-c2cc(F)c3c(c2)OC(c2ccc(C(C)C)s2)n2c-3cc3cc(-c4c[nH]c([C@@H]5CCCN5C(=O)[C@H](NC(=O)OC)C5C[C@@H](C)O[C@@H](C)C5)n4)ccc32)[nH]1)C(C)C` (stereo partly drawn) [Compound 240], the IC50 in the assay on HCV replicon 1AY93H (setting [1]) is 0.005 nM; in the assay with HCV replicon 1A (replicon 1A) it was 2.1 pM; in the assay with HCV replicon 2B (read-out: 2B IC50, replicon 2B), 0.011 nM; in the assay on HCV replicon 1B (replicon 1B) it was 2.7 pM; in the assay on HCV replicon 1AQ30D (setting [2]), 0.062 nM.
For the compound `COC(=O)N[C@H](C(=O)N1CCC[C@@H]1c1ncc(-c2cc(F)c3c(c2)OC(c2ccc(C(C)C)s2)n2c-3cc3cc(-c4c[nH]c([C@@H]5CCCN5C(=O)[C@H](NC(=O)OC)C5C[C@@H](C)O[C@@H](C)C5)n4)ccc32)[nH]1)C(C)C` (stereo partly drawn) [Compound 241], the IC50 in the assay on HCV replicon 1AY93H (setting [1]) stood at 0.005 nM; with HCV replicon 1A (replicon 1A), 1.6 pM; in the assay with HCV replicon 2B (read-out: 2B IC50, replicon 2B) it was 0.016 nM; in the assay with HCV replicon 1B (replicon 1B), 2.4 pM; in the assay with HCV replicon 1AQ30D (setting [2]) it was 0.033 nM.
Turning to `COC(=O)NC(C(=O)N1CCC[C@H]1c1ncc(-c2cc(F)c3c(c2)OC(c2ccc(C4CCC4)s2)n2c-3cc3cc(-c4cnc([C@@H]5CCCN5C(=O)[C@@H](NC(=O)OC)C5CCOCC5)[nH]4)ccc32)[nH]1)C(C)(C)F` (stereo partly drawn) [Compound 250], the IC50 in the assay with HCV replicon 1AY93H (setting [3]) was found to be 0.003 nM; in the assay with HCV replicon 1A (Hepatitis C virus, replicon 1A), 2.2 pM; with HCV replicon 2B (setting [4]), 0.001 nM; in the assay on HCV replicon 1B (Hepatitis C virus, replicon 1B), 2.9 pM; in the assay on HCV replicon 1AQ30D (setting [5]) it was 0.013 nM.
With `COC(=O)NC(C(=O)N1[C@@H]2C[C@@H]2C[C@H]1c1ncc(-c2ccc3c(c2)cc2n3C(c3ccc(C4CC4)s3)Oc3cc(-c4cnc([C@@H]5CCCN5C(=O)[C@@H](NC(=O)OC)C(C)C)[nH]4)cc(F)c3-2)[nH]1)C1CCOC(C)(C)C1` (stereo partly drawn) [Compound 275], the IC50 stood at 0.003 nM in the assay with HCV replicon 1AY93H (setting [3]); 1.9 pM in the assay with HCV replicon 1A (Hepatitis C virus, replicon 1A); 0.006 nM in the assay on HCV replicon 2B (setting [4]); 3.2 pM in the assay with HCV replicon 1B (Hepatitis C virus, replicon 1B); 0.023 nM with HCV replicon 1AQ30D (setting [5]).
Consider `COC(=O)N[C@H](C(=O)N1CCC[C@@H]1c1ncc(-c2cc(F)c3c(c2)OC(c2ccc(C(C)C)s2)n2c-3cc3cc(-c4c[nH]c([C@@H]5C[C@@H]6C[C@@H]6N5C(=O)[C@H](NC(=O)OC)C5C[C@@H](C)O[C@@H](C)C5)n4)ccc32)[nH]1)C(C)C` (stereo partly drawn) [Compound 284], for which the IC50 with HCV replicon 1AY93H (setting [3]) worked out at 0.002 nM; with HCV replicon 1A (Hepatitis C virus, replicon 1A), 1.8 pM; in the assay on HCV replicon 2B (setting [4]) it was 0.024 nM; in the assay on HCV replicon 1B (Hepatitis C virus, replicon 1B), 2.1 pM; with HCV replicon 1AQ30D (setting [5]), 0.021 nM.
For `COC(=O)N[C@H](C(=O)N1CCC[C@H]1c1ncc(-c2cc(F)c3c(c2)OC(c2ccc(C4CC4)s2)n2c-3cc3cc(-c4cnc([C@@H]5CCCN5C(=O)[C@@H](NC(=O)OC)C5C[C@@H](C)O[C@@H](C)C5)[nH]4)ccc32)[nH]1)C1C[C@@H](C)O[C@@H](C)C1` (stereo partly drawn) [Compound 303], in that order: 0.002 nM, 2.6 pM, 0.003 nM, 1.3 pM and 0.008 nM.
As for `COC(=O)NC(C(=O)N1CCC[C@H]1c1ncc(-c2ccc3c(c2)cc2n3C(c3ccc(CC4CC4)s3)Oc3cc(-c4cnc([C@@H]5CCCN5C(=O)[C@@H](NC(=O)OC)C(C)C)[nH]4)cc(F)c3-2)[nH]1)C1CCO[C@H](C)C1` (stereo partly drawn) [Compound 368], the IC50 was 0.0047 nM with HCV replicon 1AY93H (setting [1]); 2.6 pM in the assay with HCV replicon 1A (replicon 1A); 0.0028 nM in the assay on HCV replicon 2B (read-out: 2B IC50, replicon 2B); 3.1 pM in the assay on HCV replicon 1B (replicon 1B); 0.0304 nM in the assay on HCV replicon 1AQ30D (setting [2]).
`COC(=O)NC(C(=O)N1CCC[C@H]1c1ncc(-c2ccc3c(c2)cc2n3C(c3ccc(C4CCC4)s3)Oc3cc(-c4cnc([C@@H]5CCCN5C(=O)[C@@H](NC(=O)OC)C(C)C)[nH]4)cc(F)c3-2)[nH]1)C1C[C@@H](C)O[C@@H](C)C1` (stereo partly drawn) [Compound 374]: the IC50 turned out to be 0.0035 nM with HCV replicon 1AY93H (setting [3]); 1.5 pM in the assay on HCV replicon 1A (Hepatitis C virus, replicon 1A); 0.0041 nM in the assay on HCV replicon 2B (setting [4]); 2.2 pM with HCV replicon 1B (Hepatitis C virus, replicon 1B); 0.0221 nM with HCV replicon 1AQ30D (setting [5]).
As for `COC(=O)NC(C(=O)N1CCC[C@@H]1c1ncc(-c2ccc3c(c2)cc2n3C(c3ccc(CC4CC4)s3)Oc3cc(-c4cnc([C@@H]5CCCN5C(=O)[C@@H](NC(=O)OC)C(C)C)[nH]4)cc(F)c3-2)[nH]1)C1C[C@@H](C)O[C@@H](C)C1` (stereo partly drawn) [Compound 376], the IC50 worked out at 0.0023 nM in the assay on HCV replicon 1AY93H (setting [3]); 2.6 pM in the assay with HCV replicon 1A (Hepatitis C virus, replicon 1A); 0.006 nM in the assay with HCV replicon 2B (setting [4]); 2.9 pM with HCV replicon 1B (Hepatitis C virus, replicon 1B); 0.0424 nM in the assay on HCV replicon 1AQ30D (setting [5]).
On the same counts, the results for `COC(=O)N[C@H](C(=O)N1CCC[C@@H]1c1ncc(-c2ccc3c(c2)cc2n3C(c3ccc(C4CC4)s3)Oc3cc(-c4cnc([C@@H]5CCCN5C(=O)[C@H](NC(=O)OC)C(C)(C)F)[nH]4)cc(F)c3-2)[nH]1)C1C[C@@H](C)O[C@@H](C)C1` (stereo partly drawn) [Compound 380] are 0.0052 nM, 3 pM, 0.0056 nM, 2.4 pM and 0.022 nM.
Take `COC(=O)NC(C(=O)N1CCC[C@H]1c1ncc(-c2ccc3c(c2)cc2n3C(c3ccc(C(F)(F)F)s3)Oc3cc(-c4cnc([C@@H]5CCCN5C(=O)[C@@H](NC(=O)OC)C(C)C)[nH]4)cc(F)c3-2)[nH]1)C1C[C@@H](C)O[C@@H](C)C1` (stereo partly drawn) [Compound 650]: the IC50 with HCV replicon 1AY93H (setting [6]) came out at 0.0057 nM; with HCV replicon 1A (setting [7]), 2 pM; with HCV replicon 2B (setting [8]) it was 0.005 nM; in the assay with HCV replicon 1B (setting [9]), 1.4 pM; with HCV replicon 1AQ30D (setting [10]) it was 0.0458 nM.
Consider `COC(=O)N[C@H](C(=O)N1CCC[C@H]1c1ncc(-c2cc(F)c3c(c2)OC(c2ccc(C4CC4)s2)n2c-3cc3cc(-c4cnc([C@@H]5C[C@@H](F)CN5C(=O)[C@@H](NC(=O)OC)C(C)C)[nH]4)ccc32)[nH]1)C(C)C` (stereo partly drawn) [Compound 757], for which the IC50 in the assay on HCV replicon 1AY93H (setting [6]) amounted to 0.013 nM; with HCV replicon 1A (setting [7]) it was 2.7 pM; in the assay with HCV replicon 2B (setting [8]) it was 2.4 nM; in the assay on HCV replicon 1B (setting [9]) it was 3 pM; with HCV replicon 1AQ30D (setting [10]), 2.85 nM.
For `COC(=O)NC(C(=O)N1CCC[C@H]1c1ncc(-c2ccc3c(c2)cc2n3C(c3ccc(CC(C)(C)OC)s3)Oc3cc(-c4cnc([C@@H]5CCCN5C(=O)[C@@H](NC(=O)OC)C(C)C)[nH]4)cc(F)c3-2)[nH]1)C1CCOC(C)(C)C1` (stereo partly drawn) [Compound 848], in that order: 0.01 nM, 2.9 pM, 0.026 nM, 4.5 pM and 0.085 nM.
